This assay deals with T1, glutaminase (GAC) (Homo sapiens, UniProt O94925).
T1 sequence (O94925 55-598 isoform O94925-3 limits assumed): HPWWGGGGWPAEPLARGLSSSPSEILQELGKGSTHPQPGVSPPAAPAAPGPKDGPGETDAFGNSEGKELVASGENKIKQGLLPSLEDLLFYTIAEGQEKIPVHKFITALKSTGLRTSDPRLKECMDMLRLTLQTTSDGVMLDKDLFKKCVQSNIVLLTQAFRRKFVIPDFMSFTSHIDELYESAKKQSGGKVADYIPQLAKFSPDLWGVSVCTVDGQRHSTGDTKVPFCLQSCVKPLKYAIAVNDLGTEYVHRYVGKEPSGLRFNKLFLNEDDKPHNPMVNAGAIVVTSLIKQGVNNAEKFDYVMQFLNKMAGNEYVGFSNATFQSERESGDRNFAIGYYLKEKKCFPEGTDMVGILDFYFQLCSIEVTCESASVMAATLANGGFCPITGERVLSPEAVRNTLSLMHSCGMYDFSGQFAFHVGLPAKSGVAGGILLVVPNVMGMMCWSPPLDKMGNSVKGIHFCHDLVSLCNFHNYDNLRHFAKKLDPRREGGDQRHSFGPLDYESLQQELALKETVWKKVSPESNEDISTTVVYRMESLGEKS
Put plainly: Glutaminase (GAC) coupled endpoint enzymatic assay (glutamate dehydrogenase/diaphorase/resazurin, Ex544/Em590). Type of assay: biochemical. Particulars: inhibition of glutaminase, tested in an assay of Example A or Example B; class symbols A-E. The method, boiled down: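 Compound preincubated 60 min at room temperature with 0.875 μg/ml GAC, 1.56 mM NAD and 6.25 U/ml GDH in HEPES/phosphate buffer pH 8.5; substrate mix then added, giving glutamine at Km. Coupled GDH/diaphorase converts resazurin to resorufin; reaction stopped with SDS and fluorescence read at Ex544/Em590.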
In turn, `O=C(Cc1cccc(N2CC(F)(F)C2)n1)Nc1nnc([C@H]2CCC[C@H](c3nnc(NC(=O)[C@H](O)c4ccccc4)s3)C2)s1` [Compound 369] showed an IC50 of less than 100 nM. Under `CC(=O)Nc1cccc(CC(=O)Nc2nnc([C@H]3CCC[C@H](c4nnc(NC(=O)Cc5cccc(NC(C)=O)c5)s4)C3)s2)c1` [Compound 65, N,N′-(5,5′-((1S,3S)-cyclohexane-1,3-diyl)bis(1,3,4-thiadiazole-5,2-diyl))bis(2-(3-acetamidophenyl)acetamide)] stands less than 100 nM; under `O=C(Cc1ccccc1F)Nc1nnc([C@H]2CCC[C@H](c3nnc(NC(=O)Cc4ccccc4F)s3)C2)s1` [Compound 87, N,N′-(5,5′-((1S,3S)-cyclohexane-1,3-diyl)bis(1,3,4-thiadiazole-5,2-diyl))bis(2-(2-fluorophenyl)acetamide)], less than 100 nM; under `O=C(CC1CC1)Nc1nnc([C@H]2CCC[C@H](c3nnc(NC(=O)CC4CC4)s3)C2)s1` [Compound 49, N,N′-(5,5′-((1S,3S)-cyclohexane-1,3-diyl)bis(1,3,4-thiadiazole-5,2-diyl))bis(2-cyclopropylacetamide)], 100 to 500 nM. Under `O=C(Cc1ccncc1)Nc1nnc([C@H]2CCC[C@H](c3nnc(NC(=O)Cc4ccncc4)s3)C2)s1` [Compound 29, N,N′-(5,5′-((1S,3S)-cyclohexane-1,3-diyl)bis(1,3,4-thiadiazole-5,2-diyl))bis(2-(pyridin-4-yl)acetamide)] stands less than 100 nM; under `CC(=O)Nc1nnc([C@H]2CCC[C@H](c3nnc(NC(C)=O)s3)C2)s1` [Compound 41], 100 to 500 nM. Under `O=C(Cc1nccs1)Nc1nnc([C@H]2CCC[C@H](c3nnc(NC(=O)Cc4nccs4)s3)C2)s1` [Compound 61] stands 100 to 500 nM; under `N#Cc1cccc(CC(=O)Nc2nnc([C@H]3CCC[C@H](c4nnc(NC(=O)Cc5cccc(C6CCCNC6)c5)s4)C3)s2)c1` (stereo partly drawn) [Compound 367, 2-(3-cyanophenyl)-N-(5-((1S,3S)-3-(5-(2-(3-(piperidin-3-yl)phenyl)acetamido)-1,3,4-thiadiazol-2-yl)cyclohexyl)-1,3,4-thiadiazol-2-yl)acetamide], less than 100 nM; under `O=C(Cc1ccccn1)Nc1nnc([C@@H]2CCC[C@@H](c3nnc(NC(=O)Cc4ccccn4)s3)C2)s1` [Compound 17, N,N′-(5,5′-((1R,3R)-cyclohexane-1,3-diyl)bis(1,3,4-thiadiazole-5,2-diyl))bis(2-(pyridin-2-yl)acetamide)], 1000 to 2000 nM. As for `O=C(Cc1csc(N2CC(F)(F)C2)n1)Nc1nnc([C@H]2CCC[C@H](c3nnc(NC(=O)Cc4csc(N5CC(F)(F)C5)n4)s3)C2)s1` [Compound 336], the IC50 was less than 100 nM. Under `O=C(Cc1ccc(N2CC(F)C2)cn1)Nc1nnc([C@H]2CC[C@H](c3nnc(NC(=O)Cc4ccc(N5CC(F)C5)cn4)s3)C2)s1` [Compound 363] stands less than 100 nM. The same measure for `CSCCC(=O)Nc1nnc([C@H]2CCC[C@H](c3nnc(NC(=O)CCSC)s3)C2)s1` [Compound 46, N,N′-(5,5′-((1S,3S)-cyclohexane-1,3-diyl)bis(1,3,4-thiadiazole-5,2-diyl))bis(3-(methylthio)propanamide)]: 100 to 500 nM; for `CN(C)c1cccnc1CC(=O)Nc1nnc([C@H]2CCC[C@H](c3nnc(NC(=O)Cc4ncccc4N(C)C)s3)C2)s1` (relative stereo) [Compound 115, N,N′-(5,5′-(trans-cyclohexane-1,3-diyl)bis(1,3,4-thiadiazole-5,2-diyl))bis(2-(3-(dimethylamino)pyridin-2-yl)acetamide)]: 500 to 1000 nM; for `O=C(Nc1nnc([C@H]2CCC[C@H](c3nnc(NC(=O)C(CO)c4ccccc4)s3)C2)s1)C(CO)c1ccccc1` (stereo partly drawn) [Compound 380, N,N′-(5,5′-((1S,3S)-cyclohexane-1,3-diyl)bis(1,3,4-thiadiazole-5,2-diyl))bis(3-hydroxy-2-phenylpropanamide)]: less than 100 nM. Under `O=C(CN1CCCC1=O)Nc1nnc([C@H]2CCC[C@H](c3nnc(NC(=O)CN4CCCC4=O)s3)C2)s1` [Compound 85, N,N′-(5,5′-((1S,3S)-cyclohexane-1,3-diyl)bis(1,3,4-thiadiazole-5,2-diyl))bis(2-(2-oxopyrrolidin-1-yl)acetamide)] stands 500 to 1000 nM; under `O=C(Cc1ccccn1)Nc1nnc([C@H]2CCC[C@H](c3nnc(NC(=O)[C@@H](O)c4ccccc4)s3)C2)s1` [Compound 376, (S)-2-hydroxy-2-phenyl-N-(5-((1S,3S)-3-(5-(2-(pyridin-2-yl)acetamido)-1,3,4-thiadiazol-2-yl)cyclohexyl)-1,3,4-thiadiazol-2-yl)acetamide], less than 100 nM; under `CC(=O)Nc1nnc([C@H]2CCC[C@H](c3nnc(NC(C)=O)s3)C2)s1` (single isomer, unassigned) [Compound 99], 100 to 500 nM. For the compound `O=C(Cc1cccc([N+](=O)[O-])c1)Nc1nnc([C@H]2CCC[C@H](c3nnc(NC(=O)Cc4cccc([N+](=O)[O-])c4)s3)C2)s1` [Compound 69, N,N′-(5,5′-((1S,3S)-cyclohexane-1,3-diyl)bis(1,3,4-thiadiazole-5,2-diyl))bis(2-(3-nitrophenyl)acetamide)], the IC50 was less than 100 nM. The same measure for `CC(=O)Nc1ccccc1CC(=O)Nc1nnc([C@H]2CCC[C@H](c3nnc(NC(=O)Cc4ccccc4NC(C)=O)s3)C2)s1` [Compound 55, N,N′-(5,5′-((1S,3S)-cyclohexane-1,3-diyl)bis(1,3,4-thiadiazole-5,2-diyl))bis(2-(2-acetamidophenyl)acetamide)]: 100 to 500 nM; for `Cc1ccccc1CC(=O)Nc1nnc([C@H]2CCC[C@H](c3nnc(NC(=O)Cc4ccccc4C)s3)C2)s1` [Compound 83, N,N′-(5,5′-((1S,3S)-cyclohexane-1,3-diyl)bis(1,3,4-thiadiazole-5,2-diyl))bis(2-o-tolylacetamide)]: 100 to 500 nM; for `O=C(Cc1c(F)cccc1F)Nc1nnc([C@H]2CCC[C@H](c3nnc(NC(=O)Cc4c(F)cccc4F)s3)C2)s1` [Compound 89]: 100 to 500 nM.

For `CN(C)c1cccc(CC(=O)Nc2nnc([C@H]3CCC[C@H](c4nnc(NC(=O)Cc5cccc(N(C)C)n5)s4)C3)s2)n1` (single isomer, unassigned) [Compound 105], the IC50 was less than 100 nM. For `COc1cccc(CC(=O)Nc2nnc([C@H]3CCC[C@H](c4nnc(NC(=O)Cc5cccc(OC)n5)s4)C3)s2)n1` (single isomer, unassigned) [Compound 84], the IC50 was less than 100 nM.

`O=C(Cc1cncc(N2CC(F)(F)C2)n1)Nc1nnc([C@H]2CCC[C@H](c3nnc(NC(=O)Cc4cncc(N5CC(F)(F)C5)n4)s3)C2)s1` [Compound 354]: the IC50 is less than 100 nM. Under `CCC(=O)Nc1nnc([C@H]2CCC[C@H](c3nnc(NC(=O)CC)s3)C2)s1` [Compound 40, N,N′-(5,5′-((1S,3S)-cyclohexane-1,3-diyl)bis(1,3,4-thiadiazole-5,2-diyl))dipropionamide] stands 100 to 500 nM; under `O=C(CC1CCCO1)Nc1nnc([C@H]2CCC[C@H](c3nnc(NC(=O)CC4CCCO4)s3)C2)s1` (stereo partly drawn) [Compound 77, N,N′-(5,5′-((1S,3S)-cyclohexane-1,3-diyl)bis(1,3,4-thiadiazole-5,2-diyl))bis(2-(tetrahydrofuran-2-yl)acetamide)], 1000 to 2000 nM.

A word on the IC50: it is the midpoint of a concentration-inhibition curve. High values mean a need for much substance, low ones inhibition by little substance.

The values above are taken from US10087172B2, “Compounds and their methods of use” (AGIOS PHARMACEUTICALS, INC, priority 2012, dated 2018).
